In US12220412B2, “Methods for administering corticosteroids” (Sparrow Pharmaceuticals, Inc., priority 2018, dated 2025):

Assays:
[1] = target: T1, HSD-1 (Homo sapiens, UniProt P28845); assay: Brain HSD-1 occupancy by PET with [11C]AS2471907 after single dose; format: in vivo; parameters: from tissue; host or cells: in vivo, human subjects; settings: for HSD-1 occupancy: single dose 3 mg
Protocol: The level and time course of HSD-1 occupancy following single dose administration of Compound A were assessed in healthy male subjects by positron emission tomography (PET). For each PET scan, [11C]AS2471907 was administered by an intravenous infusion pump, followed by up to 120 minutes of dynamic PET data acquisition. Most subjects underwent two PET scans.

[2] = Population pharmacokinetics model for Compound A from two clinical trials; format: in vivo, human
Protocol: On the basis of data from two Compound A clinical trials, a population pharmacokinetics model (FIG. 4) was developed using a maximal dose of 20 mg. The selected model to describe the pharmacokinetics of Compound A was a two-compartment disposition model, with a 4-compartment transit absorption, saturable binding from the central compartment, and first-order elimination. Inter-individual variability was implemented on clearance (CL), volume of distribution (V2), absorption rate constant (kA), second order association constant (Kon), first order dissociation constant (Koff), and total number of saturable binding receptors (R). This model had satisfactory goodness-of-fit and acceptable relative standard errors.
CL, kA, R, Kon, and Koff are defined above. BAV is relative bioavailability, kTR is a transit rate constant (equal to kA), k23 and k32 are transfer rate constants between central and peripheral compartments.
The covariate effect was moderate (25% increase of BAV in 88-year old subjects compared to 36-year old subjects).

[3] = target: T1, HSD-1; assay: Urinary (tetrahydrocortisol+allotetrahydrocortisol)/tetrahydrocortisone ratio as indicator of HSD-1 activity in clinical trial subjects; format: in vivo; parameters: from tissue; host or cells: in vivo, human subjects
Protocol: Following a minimum of a 10-hour fast, healthy adult racially diverse male and female subjects were administered Compound A (ASP3662) or placebo for Compound A with 240 mL of room temperature water. Subjects continued to fast from any food and drinks (water was allowed as desired except for 1 hour before and 1 hour after study drug administration) until 4 hours after study drug administration. Urine samples were collected for the measurement of cortisol, cortisone, tetrahydrocortisol (5α, 5β) and tetrahydrocortisone. The cumulative amount of each entity excreted in the urine was calculated for each subject from time zero to 24 hours after dosing (Ae24), from 24 hours after dosing to 48 hours after dosing (Ae48), and Aelast.
The ratio of 5α-tetrahydrocortisol+5β-tetrahydrocortisol to urinary tetrahydrocortisone was used as an indicator of HSD-1 activity. Compound A decreased the 5α-tetrahydrocortisol+5β-tetrahydrocortisol to urinary tetrahydrocortisone ratio with increasing dose compared to placebo, resulting in approximately 80% inhibition at 6 mg. […]

T1 sequence (P28845 whole entry, the tested form may be a part): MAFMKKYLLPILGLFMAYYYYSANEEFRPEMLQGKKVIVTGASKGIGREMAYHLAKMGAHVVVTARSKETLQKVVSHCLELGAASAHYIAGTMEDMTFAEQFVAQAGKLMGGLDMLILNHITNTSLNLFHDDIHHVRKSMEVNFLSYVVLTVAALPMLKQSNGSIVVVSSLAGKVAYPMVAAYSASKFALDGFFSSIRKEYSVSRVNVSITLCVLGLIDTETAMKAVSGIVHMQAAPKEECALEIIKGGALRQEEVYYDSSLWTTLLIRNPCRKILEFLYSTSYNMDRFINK

Occupancy (ROIswa), PET Scan 1 ([1]; Subject A, 30 mg single dose, 2.62 hrs post dose): 99.68%
Occupancy (ROIswa), PET Scan 2 ([1]; Subject A, 30 mg single dose, 23.75 hrs post dose): 99.71%
Occupancy (ROIswa), PET Scan 1 ([1]; Subject B, 30 mg single dose, 27.43 hrs post dose): 99.97%
Occupancy (ROIswa), PET Scan 2 ([1]; Subject B, 30 mg single dose, 46.75 hrs post dose): 98.83%
Occupancy (ROIswa), PET Scan 1 ([1]; Subject C, 6 mg single dose, 3.25 hrs post dose): 99.73%
Occupancy (ROIswa), PET Scan 2 ([1]; Subject C, 6 mg single dose, 23.74 hrs post dose): 96.20%
Occupancy (ROIswa), PET Scan 1 ([1]; Subject D, 3 mg single dose, 3.27 hrs post dose): 89.91%
Occupancy (ROIswa), PET Scan 2 ([1]; Subject D, 3 mg single dose, 45.25 hrs post dose): 83.15%
Occupancy (ROIswa), PET Scan 1 ([1]; Subject E, 3 mg single dose, 19.2 hrs post dose): 88.16%
Occupancy (ROIswa), PET Scan 2 ([1]; Subject E, 3 mg single dose, 25.43 hrs post dose): 83.85%
Occupancy (ROIswa), PET Scan 1 ([1]; Subject F, 3 mg single dose, 42.19 hrs post dose): 58.87%
Occupancy (ROIswa), PET Scan 2 ([1]; Subject F, 3 mg single dose, 138.67 hrs post dose): 45.49%
Occupancy (ROIswa), PET Scan 1 ([1]; Subject G, 3 mg single dose, 42.46 hrs post dose): 70.96%
Occupancy (ROIswa), PET Scan 2 ([1]; Subject G, 3 mg single dose, 189.15 hrs post dose): 25.61%
Occupancy (ROIswa), PET Scan 1 ([1]; Subject H, 3 mg single dose, 43.85 hrs post dose): 56.39%
Occupancy (ROIswa), PET Scan 2 ([1]; Subject H, 3 mg single dose, 139.36 hrs post dose): 36.31%
Occupancy (ROIswa), PET Scan 1 ([1]; Subject I, 3 mg single dose, 46.24 hrs post dose): 60.92%
Occupancy (ROIswa), PET Scan 1 ([1]; Subject J, 2 mg single dose, 2.84 hrs post dose): <0%
Occupancy (ROIswa), PET Scan 1 ([1]; Subject K, 1 mg single dose, 3.24 hrs post dose): <0%
Occupancy (ROIswa), PET Scan 2 ([1]; Subject K, 1 mg single dose, 20.66 hrs post dose): <0%
Occupancy (ROIswa), PET Scan 1 ([1]; Subject L, 1 mg single dose, 22.55 hrs post dose): <0%
Occupancy (ROIswa), PET Scan 2 ([1]; Subject L, 1 mg single dose, 47.95 hrs post dose): <0%
enzyme occupancy ([1]; single 2 and 1 mg doses): no enzyme occupancy was detected
HSD-1 occupancy ([1]; 19.2-25.43 hours post dose): ~86%
HSD-1 occupancy ([1]; 42.19-46.24 hours post dose): 60-80%
HSD-1 occupancy ([1]; 138.67-139.36 hours post dose): ~40%
HSD-1 occupancy ([1]; 3.25 hours post dose): ~90%
HSD-1 occupancy ([1]; 189.15 hours post dose): 26%
region of interest size weighted average (ROIswa) HSD-1 occupancy ([1]; single doses of 30 and 6 mg, scan times 2.62 to 46.75 hours post dose): > 96%
increase of BAV (relative bioavailability), covariate effect of age ([2]; 88-year old subjects compared to 36-year old subjects): 25%
Covariate: age on BAV (relative bioavailability), estimate ([2]; population PK model): 0.200
Koff (first order dissociation constant, saturable binding), estimate ([2]; population PK model): 0.210 h⁻¹
Kon (second order association constant, saturable binding), estimate ([2]; population PK model): 0.0682 µg⁻¹ h⁻¹
R (total number of saturable binding receptors), estimate ([2]; population PK model): 3170 nmol
V2 (volume of distribution), estimate ([2]; population PK model): 90.2 L/70 kg
amount of Compound A corresponding to estimated total number of saturable binding receptors ([2]; population PK model): 1.347 mg
k23 (transfer rate constant between central and peripheral compartments), estimate ([2]; population PK model): 0.00341 h^−1/(70 kg)^−0.25
k32 (transfer rate constant between central and peripheral compartments), estimate ([2]; population PK model): 0.0255 h^−1/(70 kg)^−0.25
kA (absorption rate constant), estimate ([2]; population PK model): 5.38 h⁻¹
CL (clearance), estimate ([2]; population PK model, doses up to 20 mg): 7.24 L/h/(70 kg)^0.75
number of doses to achieve full HSD-1 inhibition ([3]; dose level 0.4 mg): 9 to 11 doses
number of doses to achieve full HSD-1 inhibition ([3]; dose level 0.7 mg): 5 to 6 doses
number of doses to achieve full HSD-1 inhibition ([3]; dose level 2 mg): 2 doses
HSD-1 ratio, Day 1 Mean ([3]; elderly non-Japanese subjects, 20 mg, Day 1 single dose, 24 h urine): 0.17
SMILES: Cn1c(-c2ccc(C(N)=O)cc2F)nnc1C(C)(C)Oc1c(F)cc(Cl)cc1F [Compound A]
